Test results taken from US9944618B2, “Inhibiting neurotransmitter reuptake” (Mayo Foundation for Medical Education and Research, priority 2013, dated 2018).

Target: human norepinephrine transporter (Homo sapiens (Human), UniProt P23975)
Test: Human NET (norepinephrine transporter) uptake assay
Format: cell-based
Details: comparison in words, used to assign configuration
Protocol: This protocol was designed to measure inhibition of uptake by the human norepinephrine transporter. […] The Assay Buffer (AB) was 1×HBSS and 0.02 M HEPES.
The HEK293F cells were transfected with the human norepinephrine transporter and frozen in 1 mL aliquots at about 1E+07 cells/mL. On the day of the experiment, the cells were removed from −80° C. or liquid nitrogen and thawed in a room temperature water bath. The cells were dilute to about 1-2E+06 with Freestyle medium. A 1 mL sample (1:2 dilution) was prepared, and the cells were counted. The cells were spun at 1100 rpm for 5 minutes, and the medium was aspirated off. The cells were resuspend in medium at 1.5E+06 cells/mL for about 60,000 cells per well. 40 μL of cells were dispensed per well in the Biocoat plates. The plates were spun at 1100 rpm for 1 minute to improve homogeneity of the cell layer and were incubated at 37° C. for a minimum of 3 hours.
12 μL of test compound (10 mM) in DMSO was added to the wells, and nomifensine was used as a control. […] The neurotransmitter transporter dye was prepared in AB prior to use.
Due to the proprietary nature of the dye formulation, all dye concentrations were expressed as a percentage of the vendor-recommended dye reconstitution. Thus, the above calculations were valid when both [dye] and Km were expressed in the same units (%). Compounds were tested in triplicate (n=3).

Sequence of human norepinephrine transporter (P23975 whole entry): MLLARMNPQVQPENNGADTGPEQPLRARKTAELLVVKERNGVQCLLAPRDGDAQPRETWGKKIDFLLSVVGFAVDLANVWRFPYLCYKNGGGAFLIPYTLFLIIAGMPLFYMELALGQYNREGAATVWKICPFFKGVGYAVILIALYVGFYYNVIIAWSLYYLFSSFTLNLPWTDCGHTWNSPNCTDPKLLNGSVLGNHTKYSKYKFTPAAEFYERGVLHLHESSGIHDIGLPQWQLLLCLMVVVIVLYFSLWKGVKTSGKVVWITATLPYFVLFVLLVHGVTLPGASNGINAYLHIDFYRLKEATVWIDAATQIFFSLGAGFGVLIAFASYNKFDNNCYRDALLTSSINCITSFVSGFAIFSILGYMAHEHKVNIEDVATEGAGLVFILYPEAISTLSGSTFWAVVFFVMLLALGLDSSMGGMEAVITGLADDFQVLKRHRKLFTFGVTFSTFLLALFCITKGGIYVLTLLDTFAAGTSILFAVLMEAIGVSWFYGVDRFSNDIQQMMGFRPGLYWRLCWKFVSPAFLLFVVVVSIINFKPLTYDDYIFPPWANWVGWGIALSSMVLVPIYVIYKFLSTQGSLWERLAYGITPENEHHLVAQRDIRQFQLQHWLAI

| SMILES | potency at hNET relative to the other enantiomer or epimer |
| --- | --- |
| CNC[C@H](c1ccc2ccccc2c1)[C@H](O)c1cc(F)cc(F)c1 (single isomer, unassigned) [compound 37] | more potent |
| CNC[C@@H](c1ccc(Cl)c(Cl)c1)[C@@H](O)c1cccc([S+](C)[O-])c1 (single isomer, unassigned) [compound 116] | equipotent |
| O[C@@H](c1ccccc1)[C@@H](CNCC(F)(F)F)c1ccc2ccccc2c1 (single isomer, unassigned) [compound 130] | equipotent |
| CNC[C@H](c1ccc(Cl)c(Cl)c1)[C@H](O)c1cccc(N(C)C)c1 (single isomer, unassigned) [compound 168] | similar |
| CNCC(Cc1ccccc1CO)c1ccc2ccccc2c1 (stereo not shown) [compound 2] | more potent |
| CNC[C@H](c1ccc(Cl)c(Cl)c1)[C@H](O)c1ccccc1 [compound 10] | more potent |
| CNC[C@H](c1ccc2ccccc2c1)[C@H](O)c1ccccc1F [compound 15] | more potent |
| CNCC(c1ccc(Br)c(Cl)c1)[C@H](O)c1ccccc1 (stereo partly shown) [compound 16] | more potent |
| CNC[C@H](c1ccc(Br)c(Cl)c1)[C@@H](O)c1ccccc1 [compound 21] | more potent |
| CNC[C@H](c1ccc2ccccc2c1)[C@H](O)c1ccc(Cl)nc1 [compound 26] | higher inhibitory activity |
| CNCC(CCc1ccccc1)[C@@H](O)c1ccccc1 (stereo partly shown) [compound 27] | more potent |
| CNC[C@H](c1ccc2ccccc2c1)[C@H](O)c1ccccc1C [compound 28] | more potent |
| CNCC(Cc1ccccc1C)c1ccc2ccccc2c1 (stereo not shown) [compound 39] | more potent |
| C[C@](CN)(Cc1cccnc1)c1ccc2ccccc2c1 [compound 42] | more potent |
| CNC[C@@H](Cc1ccc(C)s1)c1ccc2ccccc2c1 [compound 44] | higher potency |
| CNCC(Cc1cccnc1)c1ccc2ccccc2c1 (stereo not shown) [compound 48] | more potent |
| CNC[C@@H](c1ccc2ccccc2c1)[C@@H](O)c1cccnc1 [compound 49] | more potent |
| CNCC(Cc1ccccc1O)c1ccc2ccccc2c1 (stereo not shown) [compound 52] | more potent |
| CNC[C@H](c1ccc(OC)c(C)c1)[C@H](O)c1cccnc1 [compound 55] | more potent |
| CNCC(Cc1ccccc1OC)c1ccc2ccccc2c1 (stereo not shown) [compound 57] | more potent |

| SMILES | potency at hNET relative to the other enantiomer or epimer |
| --- | --- |
| CNC[C@H](c1ccc2ccccc2c1)[C@@H](O)c1ccccc1F [compound 60] | more potent |
| CNC[C@H](c1ccc(Cl)c(Cl)c1)[C@@H](O)c1ccccc1[N+](=O)[O-] [compound 65] | more potent |
| CNCC(CCc1ccccc1)[C@H](O)c1ccccc1 (stereo partly shown) [compound 66] | less potent |
| CNC[C@H](c1ccc(Cl)c(Cl)c1)[C@@H](O)c1ccccc1 [compound 70] | more potent |
| CNC[C@H](c1ccc(Cl)c(Cl)c1)[C@H](O)c1cccc(Br)c1 [compound 76] | more potent |
| CNC[C@@H](c1ccc2ccccc2c1)[C@@H](O)c1ccccc1F [compound 78] | less potent |
| CNCC(C[C@H](O)c1ccccc1)c1ccc2ccccc2c1 (stereo partly shown) [compound 85] | more potent |
| CNCC(Cc1ccccc1CO)c1ccc2ccccc2c1 (stereo not shown) [compound 90] | less potent |
| CNC[C@H](c1ccc2ccccc2c1)[C@H](O)c1cncc(OC)c1 [compound 92] | more potent |
| CNC[C@H](C[C@H](O)c1ccccc1)c1ccc2ccccc2c1 [compound 93] | less potent |
| CNC[C@H](c1ccc(Cl)c(Cl)c1)[C@@H](O)c1cccc(NC(C)=O)c1 [compound 94] | more potent |
| NC[C@H](c1ccc2ccccc2c1)[C@@H](O)c1ccncc1Cl [compound 95] | higher inhibitory activity |
| CNC[C@@H](c1ccc2ccccc2c1)[C@H](O)c1ccccc1F [compound 96] | less potent |
| CNC[C@H](c1ccc(Cl)c(Cl)c1)[C@@H](O)c1ccccc1SC [compound 97] | more potent |
| CNC[C@@H](c1ccc(Cl)c(Cl)c1)[C@H](O)c1cccc(NC(C)=O)c1 [compound 98] | less potent |
| CNC[C@@H](c1ccc2ccccc2c1)[C@H](O)c1ccccn1 [compound 99] | lower inhibitory activity |
| CNC[C@H](c1ccc(Cl)c(Cl)c1)[C@@H](O)c1ccccc1-c1cccs1 [compound 100] | higher inhibitory activity |
| CNC[C@H](c1ccc(Cl)c(Cl)c1)[C@H](O)c1cccc(S(C)(=O)=O)c1 [compound 101] | higher potency |
| CNC[C@H](c1ccc(Cl)c(Cl)c1)[C@H](O)c1cccc([N+](=O)[O-])c1 [compound 102] | more potent |
| CNC[C@@H](c1ccc2ccccc2c1)[C@@H](O)c1cccnc1 [compound 103] | less potent |

| SMILES | potency at hNET relative to the other enantiomer or epimer |
| --- | --- |
| CNC[C@H](c1ccc(Cl)c(Cl)c1)[C@@H](O)c1cccnc1OC [compound 104] | higher inhibitory activity |
| CNC[C@@H](c1ccc(Cl)c(Cl)c1)[C@@H](O)c1ccsc1 [compound 106] | lower potency |
| NCC(c1ccc2ccccc2c1)C(O)c1ccc(F)cc1F (stereo not shown) [compound 107] | higher potency |
| CNC[C@@H](c1ccc(Cl)c(Cl)c1)[C@@H](O)c1cncc(OC)c1 [compound 109] | lower potency |
| CNC[C@@H](c1ccc(Br)c(Cl)c1)[C@@H](O)c1ccccc1 [compound 110] | lower potency |
| CNC[C@@H](c1ccc(Cl)c(Cl)c1)[C@@H](O)c1ccccc1 [compound 114] | weak hNET potency |
| NC[C@@H](c1ccc2ccccc2c1)C(O)c1ccncc1Cl (stereo partly shown) [compound 118] | lower potency |
| CNC[C@@H](c1ccc(Cl)c(Cl)c1)[C@@H](O)c1cccc(SC)c1 [compound 120] | lower inhibitory activity |
| CNC[C@@H](c1ccc(Cl)c(Cl)c1)[C@@H](O)c1cccc(NS(=O)(=O)C(F)(F)F)c1 [compound 121] | lower potency |
| CNC[C@@H](c1ccc2ccccc2c1)[C@@H](O)c1cncc(OC)c1 [compound 122] | lower inhibitory activity |
| CNC[C@@H](c1ccc(Cl)c(Cl)c1)[C@@H](O)c1cccc(N2CCOCC2)c1 [compound 125] | lower inhibitory activity |
| NC[C@@H](c1ccc2ccccc2c1)[C@@H](O)c1ccc(Cl)nc1 [compound 126] | lower potency |
| CNC[C@H](c1ccc(Cl)c(Cl)c1)[C@@H](O)c1cccc(NS(=O)(=O)C(F)(F)F)c1 [compound 127] | higher inhibitory activity |
| CNC[C@@H](c1ccc(Cl)c(Cl)c1)[C@@H](O)c1ccccc1[S+](C)[O-] (stereo partly shown) [compound 128] | less potent |
| NC[C@@H](Cc1ccccc1O)c1ccc2ccccc2c1 [compound 133] | more potent |
| CNC[C@H](c1ccc2ccccc2c1)[C@@H](O)c1cc(F)cc(F)c1 [compound 141] | more potent |
| CNC[C@@H](c1ccc2ccccc2c1)[C@H](O)c1cc(F)cc(F)c1 [compound 142] | less potent |
| CNC[C@H](c1ccc2ccccc2c1)[C@H](O)c1ccc2c(c1)OCCO2 [compound 143] | higher potency |
